Results: paper PMC11428108 (Frontiers in Molecular Neuroscience, 2024)
Values joined by “and” are separate entries in the source; they are usually repeats but may differ in a detail not shown here. Equal entries are not always repeated. “Also recorded” adds a separate entry of the source. Where two headings read alike, the source gives them in different places.

What was measured:
[1] = molecular target: T1, human (α3)2(β2)2α5 nAChRs (Homo sapiens, UniProt P17787+P30532+P32297); experiment: FLEXstation membrane potential assay in HEK cells stably expressing (α3)2(β2)2α5 nAChRs; type: cell-based; conditions: SR9883 0.0005–10 μM
T1 construct: expressed in transfected cells
T1 sequence (P32297 32-505): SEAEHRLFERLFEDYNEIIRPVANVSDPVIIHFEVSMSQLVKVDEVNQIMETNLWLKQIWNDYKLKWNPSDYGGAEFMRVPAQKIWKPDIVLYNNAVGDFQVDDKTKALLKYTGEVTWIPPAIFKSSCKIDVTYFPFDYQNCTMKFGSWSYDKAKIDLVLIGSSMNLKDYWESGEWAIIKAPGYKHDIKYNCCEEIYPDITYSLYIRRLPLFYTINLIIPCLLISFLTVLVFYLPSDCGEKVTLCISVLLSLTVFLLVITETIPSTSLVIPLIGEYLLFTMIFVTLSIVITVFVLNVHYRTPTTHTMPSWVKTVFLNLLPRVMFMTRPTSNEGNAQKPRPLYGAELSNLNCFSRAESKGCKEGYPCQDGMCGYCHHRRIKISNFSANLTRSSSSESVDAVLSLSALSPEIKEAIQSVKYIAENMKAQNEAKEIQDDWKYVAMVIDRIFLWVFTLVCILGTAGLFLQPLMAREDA
T1 sequence (P17787 26-502): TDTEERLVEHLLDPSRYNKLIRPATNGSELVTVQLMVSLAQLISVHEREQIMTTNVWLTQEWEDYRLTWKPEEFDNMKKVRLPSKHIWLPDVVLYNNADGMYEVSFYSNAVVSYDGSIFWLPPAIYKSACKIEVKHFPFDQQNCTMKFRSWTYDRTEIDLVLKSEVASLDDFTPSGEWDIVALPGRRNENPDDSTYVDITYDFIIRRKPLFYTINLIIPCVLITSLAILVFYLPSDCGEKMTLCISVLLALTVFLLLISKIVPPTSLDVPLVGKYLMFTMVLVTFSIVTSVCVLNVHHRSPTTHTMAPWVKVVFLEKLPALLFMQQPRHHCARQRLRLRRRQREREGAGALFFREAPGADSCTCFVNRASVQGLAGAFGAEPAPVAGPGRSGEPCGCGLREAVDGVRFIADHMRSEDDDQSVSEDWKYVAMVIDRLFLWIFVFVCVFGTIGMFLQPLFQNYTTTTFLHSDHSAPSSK
T1 sequence (P30532 23-468): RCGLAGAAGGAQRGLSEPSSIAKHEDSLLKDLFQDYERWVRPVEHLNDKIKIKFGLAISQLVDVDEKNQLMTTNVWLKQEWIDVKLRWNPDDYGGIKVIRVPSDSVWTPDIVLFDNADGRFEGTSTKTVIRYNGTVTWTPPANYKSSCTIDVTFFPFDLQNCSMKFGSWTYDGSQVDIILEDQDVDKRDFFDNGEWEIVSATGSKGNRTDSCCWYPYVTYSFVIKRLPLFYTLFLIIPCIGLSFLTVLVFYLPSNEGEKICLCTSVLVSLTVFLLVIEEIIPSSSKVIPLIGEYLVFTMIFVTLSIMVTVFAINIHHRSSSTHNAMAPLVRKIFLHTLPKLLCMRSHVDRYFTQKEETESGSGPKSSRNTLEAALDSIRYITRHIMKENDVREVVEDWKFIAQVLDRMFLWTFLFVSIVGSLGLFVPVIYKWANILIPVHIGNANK
From the text: (§1) Human embryonic kidney (HEK) cell lines stably expressing human (α4)2(β2)2β2/α4 (α4β2*) nAChRs, (α4)2(β2)2α5 nAChRs, (α4)2(β2)2β3 nAChRs, (α3)2(β4)2α3/β4 (α3β4*) nAChRs, (α3)2(β2)2α3/β2 (α3β2*) nAChRs, (α3)2(β4)2α5 nAChRs, or (α3)2(β2)2α5 nAChRs were maintained as described previously ([Wang et al., 2015]; [Kuryatov et al., 2005]; [Caligiuri et al., 2022]). The FLEXstation bench top scanning fluorometer from Molecular Devices was used to assay nAChR function in these cells, according to published protocols ([Wang et al., 2015]; [Kuryatov et al., 2005]). The membrane potential kit (Molecular Devices) was used according to the manufacturer’s protocols. Serial dilutions of SR9883 were manually added to the assay plate 15 min prior to recording. […] Potency and efficacy were calculated using the Hill equation as described previously ([Wang et al., 2015]).
(§2) Concentration-response curves of SR9883 actions in nAChR-expressing HEK cells and oocytes were fitted to the Hill equation using a nonlinear least squares curve fit method and efficacy and potency values were calculated as previously described ([Wang et al., 2015]). […] For the ICSS threshold experiment, percentages of baseline reward threshold scores were calculated by expressing the absolute threshold scores as a percentage of the scores obtained during baseline. […] Response latency data were analyzed in the same manner as the threshold data. […]

[2] = test system: male Wistar rats; experiment: Intravenous nicotine self-administration (FR5TO20); type: in vivo; conditions: for Numbers of nicotine infusions earned vs vehicle: nicotine 0.03 mg kg^−1 per infusion
Protocol: Operant chambers (Med Associates, East Fairfield, VT, United States) were used to assess responding by rats for food pellets and intravenous nicotine infusions. […] All rats were food-restricted to maintain their body weight at approximately 85% that of free-feeding weights. They were then trained to press an active lever for 45 mg food pellets on a fixed ratio 5 time-out 20 s (FR5TO20) schedule of reinforcement. […] Rats responded for food rewards until a reliable responding was achieved, defined as >90 pellets earned per 60 min session across three consecutive sessions. […] Rats were anesthetized using 1–3% isoflurane inhalation in oxygen and catheters were implanted into the left jugular vein. The catheter was passed subcutaneously to a polyethylene assembly mounted on the animals’ back. […] During the time period, responding on the active lever had no scheduled consequence.
(§3) Concentration-response curves of SR9883 actions in nAChR-expressing HEK cells and oocytes were fitted to the Hill equation using a nonlinear least squares curve fit method and efficacy and potency values were calculated as previously described ([Wang et al., 2015]). Plasma and brain levels of SR9983 after oral administration were compared using a two-tailed paired t test. […] For the ICSS threshold experiment, percentages of baseline reward threshold scores were calculated by expressing the absolute threshold scores as a percentage of the scores obtained during baseline. The baseline values were the mean thresholds on the three sessions prior to drug injections. Response latency data were analyzed in the same manner as the threshold data. […] Effects of SR9883 on responding for food pellets in rats was analyzed by a two-tailed paired t test. […] Significant main or interaction effects in ANOVAs were followed by Bonferroni or Newman–Keuls post-hoc tests as appropriate. All statistical analyses were performed using GraphPad Prism software with α set to 0.05.

[3] = molecular target: T2, human (α3)2(β4)2α5 nAChRs (Homo sapiens, UniProt P30532+P30926+P32297); experiment: FLEXstation membrane potential assay in HEK cells stably expressing (α3)2(β4)2α5 nAChRs; type: cell-based; conditions: SR9883 0.0005–10 μM
T2 construct: expressed in transfected cells
T2 sequence (P32297 32-505): as the sequence (P32297 32-505) above
T2 sequence (P30926 22-498): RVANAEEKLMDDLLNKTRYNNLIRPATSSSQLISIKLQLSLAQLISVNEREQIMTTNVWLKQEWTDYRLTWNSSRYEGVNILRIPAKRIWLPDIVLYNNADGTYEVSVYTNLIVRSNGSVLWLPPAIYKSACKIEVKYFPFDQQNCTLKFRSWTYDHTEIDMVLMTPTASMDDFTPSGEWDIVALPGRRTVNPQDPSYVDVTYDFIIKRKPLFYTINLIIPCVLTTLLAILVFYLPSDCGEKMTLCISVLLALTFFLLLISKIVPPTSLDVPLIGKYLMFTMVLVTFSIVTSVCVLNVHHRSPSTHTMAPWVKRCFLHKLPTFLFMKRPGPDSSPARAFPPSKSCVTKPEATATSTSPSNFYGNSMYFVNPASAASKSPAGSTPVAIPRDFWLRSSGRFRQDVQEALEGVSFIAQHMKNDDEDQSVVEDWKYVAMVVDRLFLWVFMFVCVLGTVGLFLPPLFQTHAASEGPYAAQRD
T2 sequence (P30532 23-468): as the sequence (P30532 23-468) above
From the text: as §1, §2

[4] = test system: α4β2*, (α4)2(β2)2α5, and (α4)2(β2)2β3 nAChRs; experiment: FLEXstation assay, summary over α4β2* stoichiometries with low-affinity agonist binding sites; type: cell-based, human
From the text: as §1, §2

[5] = molecular target: human (α4)2(β2)2β2/α4 (α4β2*) nAChRs (Homo sapiens, UniProt P17787+P43681); experiment: FLEXstation membrane potential assay in HEK cells stably expressing α4β2* nAChRs; type: cell-based; design: expressed in transfected cells
Sequence of human (α4)2(β2)2β2/α4 (α4β2*) nAChRs (P43681 27-627): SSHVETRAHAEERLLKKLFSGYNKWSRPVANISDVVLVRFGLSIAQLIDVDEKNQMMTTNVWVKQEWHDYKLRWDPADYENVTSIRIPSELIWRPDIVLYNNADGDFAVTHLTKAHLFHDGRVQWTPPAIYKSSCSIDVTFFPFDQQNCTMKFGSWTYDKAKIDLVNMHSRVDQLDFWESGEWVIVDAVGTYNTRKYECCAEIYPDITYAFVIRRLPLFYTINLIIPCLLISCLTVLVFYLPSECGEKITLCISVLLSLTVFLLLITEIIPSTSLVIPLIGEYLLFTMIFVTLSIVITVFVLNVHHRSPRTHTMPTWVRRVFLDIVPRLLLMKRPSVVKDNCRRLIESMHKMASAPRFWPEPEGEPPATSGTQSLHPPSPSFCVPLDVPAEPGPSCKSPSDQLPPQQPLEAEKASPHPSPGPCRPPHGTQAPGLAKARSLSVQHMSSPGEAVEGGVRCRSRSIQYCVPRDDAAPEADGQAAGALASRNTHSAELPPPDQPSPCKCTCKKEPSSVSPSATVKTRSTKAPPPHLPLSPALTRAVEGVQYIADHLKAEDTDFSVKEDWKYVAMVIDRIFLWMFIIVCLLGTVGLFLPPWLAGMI
Sequence of human (α4)2(β2)2β2/α4 (α4β2*) nAChRs (P17787 26-502): as the sequence (P17787 26-502) above
From the text: Human embryonic kidney (HEK) cell lines stably expressing human (α4)2(β2)2β2/α4 (α4β2*) nAChRs, (α4)2(β2)2α5 nAChRs, (α4)2(β2)2β3 nAChRs, (α3)2(β4)2α3/β4 (α3β4*) nAChRs, (α3)2(β2)2α3/β2 (α3β2*) nAChRs, (α3)2(β4)2α5 nAChRs, or (α3)2(β2)2α5 nAChRs were maintained as described previously ([Wang et al., 2015]; [Kuryatov et al., 2005]; [Caligiuri et al., 2022]). The FLEXstation bench top scanning fluorometer from Molecular Devices was used to assay nAChR function in these cells, according to published protocols ([Wang et al., 2015]; [Kuryatov et al., 2005]). The membrane potential kit (Molecular Devices) was used according to the manufacturer’s protocols. Serial dilutions of SR9883 were manually added to the assay plate 15 min prior to recording. […] Compound dilutions were prepared in V-shaped 96-well plates (Fisher Scientific Co.) and added to cell culture wells at a rate of 20 μL s^−1 during recording. Cells were incubated at 29°C for 6–20 h prior to assays to upregulate nAChRs ([Wang et al., 2015]; [Kuryatov et al., 2005]). Data points were averaged from 3 to 4 responses from separate wells. Potency and efficacy were calculated using the Hill equation as described previously ([Wang et al., 2015]).
as §3

[6] = test system: human (α3)2(β2)2α3/β2 (α3β2*) nAChRs; experiment: FLEXstation membrane potential assay in HEK cells stably expressing α3β2* nAChRs; type: cell-based; conditions: SR9883 0.0005–10 μM
From the text: as §1, §2

[7] = Plasma pharmacokinetics after IV or PO administration; type: in vivo, male C57BL/6J mice
Protocol: Mice prepared with intravenous catheters and treated with SR9883 via oral (10 mg kg^−1) or intravenous (1 mg kg^−1) routes of administration. Blood samples were collected up to 240 min after treatment into lithium heparin coated tubes (Ram Scientific) and stored on wet ice. Blood samples were later centrifuged for 3 min at 5,000 RPM to separate plasma from red blood cells. Plasma was collected into a fresh tube and stored at −80°C. A separate group of mice was treated with SR9883 (20 mg kg^−1 PO) and killed by cervical dislocation 120 min later. Their brains were collected and stored at −80°C. SR9883 levels were quantified in plasma and brain by mass spectrometry using an ABSciex 5,500 instrument and using multiple reaction monitoring as previously described ([Radnai et al., 2021]). Brain samples were homogenized in saline and then immediately treated with twice the amount (v:v) of acetonitrile to extract the compound. Plasma samples were directly treated with acetonitrile. Samples were filtered through a 0.2 μm filter plate prior to injection onto the LC–MS/MS as previously described ([Radnai et al., 2021]).

[8] = molecular target: T3, (α4)2(β2)2α4 nAChRs (Homo sapiens, UniProt P17787+P43681); experiment: nAChR-mediated currents in oocytes expressing (α4)2(β2)2α4 nAChRs (unpublished observations); type: cell-based; conditions: pure stoichiometry
T3 construct: expressed in transfected cells
T3 sequence (P43681 29-627 limits assumed): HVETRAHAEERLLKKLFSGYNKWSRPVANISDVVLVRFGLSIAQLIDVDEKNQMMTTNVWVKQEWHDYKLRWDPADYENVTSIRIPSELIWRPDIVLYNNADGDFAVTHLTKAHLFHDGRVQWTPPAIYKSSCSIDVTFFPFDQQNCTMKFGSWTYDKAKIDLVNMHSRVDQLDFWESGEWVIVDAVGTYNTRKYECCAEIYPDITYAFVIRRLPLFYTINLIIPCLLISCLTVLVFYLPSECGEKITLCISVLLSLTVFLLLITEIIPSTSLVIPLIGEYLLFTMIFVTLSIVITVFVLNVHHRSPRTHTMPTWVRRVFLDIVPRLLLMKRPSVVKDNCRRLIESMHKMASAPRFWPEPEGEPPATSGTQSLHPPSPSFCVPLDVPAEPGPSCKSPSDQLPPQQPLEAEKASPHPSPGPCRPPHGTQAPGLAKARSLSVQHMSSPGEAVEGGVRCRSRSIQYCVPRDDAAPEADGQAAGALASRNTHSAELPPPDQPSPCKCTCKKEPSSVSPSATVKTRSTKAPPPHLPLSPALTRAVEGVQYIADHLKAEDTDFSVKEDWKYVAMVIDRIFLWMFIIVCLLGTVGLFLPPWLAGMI
T3 sequence (P17787 26-502): as the sequence (P17787 26-502) above
Protocol: as §3

[9] = male, C57BL/6J, mouse, IV 1 mg kg^−1, plasma, n = 3
[10] = male, C57BL/6J, mouse, PO 10 mg kg^−1, plasma, n = 3

- EC50 (enhancement of response to EC20-30 nicotine) [1]: no effect; also recorded: No enhancement
- EC50 (enhancement of response to EC20-30 nicotine) [3]: no effect; also recorded: No enhancement
- EC50 ([4]; enhancement of the effect of nicotine, read-out: EC50 values, range over stoichiometries): 0.2 to 0.4 µM
- Effect on maximum response to nicotine ([5]; SR9883 10 μM, nicotine 0.001–50 μM): no effect
- EC50 ([5]; SR9883 0.0005–10 μM on response to EC20-30 nicotine, HEK cells, ±SEM): 0.381 ± 0.0916 µM
- nHill ([5]; SR9883 0.0005–10 μM on response to EC20-30 nicotine, ±SEM): 1.1015 ± 0.2269
- Efficacy ([5]; response to EC20-30 nicotine with SR9883 relative to nicotine alone, ±SEM): 108.92 ± 7.65%
- EC50 (enhancement of response to EC20-30 nicotine) [6]: no effect; also recorded: No enhancement
- Vss_obs ([7]; IV 1 mg kg^−1, n = 3): 2.72 ± 0.89 L/kg
- Cl_obs ([7]; PO 10 mg kg^−1, n = 3): 1.475 ± 0.145 L/h/kg
- half-life ([7]; male, C57BL/6J, mouse, plasma, iv, 1 mg/kg, IV 1 mg kg^−1, as stated in text, read-out: plasma half-life (T½)): ~53 min
- Cmax ([7]; male, C57BL/6J, mouse, plasma, iv, 1 mg/kg, IV 1 mg kg^−1, plasma, n = 3): ~775 ng/mL and ~3 µM
- half-life ([7]; male, C57BL/6J, mouse, plasma, iv, 1 mg/kg, IV 1 mg kg^−1, plasma, n = 3, mean (S.E.M.), read-out: T1/2 (converted)): 52.8 ± 21.1 min
- half-life ([7]; male, C57BL/6J, mouse, plasma, other: intravenous and oral, after IV and oral administration, read-out: half-life): 50 to 60 min
- half-life ([7]; male, C57BL/6J, mouse, plasma, po, 10 mg/kg, PO 10 mg kg^−1, as stated in text, read-out: T½): ~64 min
- Cmax ([7]; male, C57BL/6J, mouse, plasma, po, 10 mg/kg, PO 10 mg kg^−1, plasma, n = 3): 1.02 ± 0.0606 µg/mL
- half-life ([7]; male, C57BL/6J, mouse, plasma, po, 10 mg/kg, PO 10 mg kg^−1, plasma, n = 3, mean (S.E.M.), read-out: T1/2 (converted)): 224 ± 36.6 min
- clearance ([7]; male, C57BL/6J, mouse, plasma, IV 1 mg kg^−1, n = 3, read-out: Cl_obs): 2.74 ± 0.77 L/h/kg
- AUC(0-t) [7, 9]: 1.77 ± 0.62 µM·h
- Tmax [7, 9]: 4.8 min
- AUC(0-t) [7, 10]: 21.1 ± 0.54 µM·h
- Tmax [7, 10]: 64.8 ± 30.6 min
- nAChR-mediated currents [8]: enhanced nAChR-mediated currents
SMILES: N#Cc1cccc(-n2nnc(-c3cccnc3)n2)c1 [SR9883, 3-(5-(pyridin-3-yl)-2H-tetrazol-2-yl)benzonitrile]
- Numbers of nicotine infusions earned vs vehicle ([2]; SR9883 5 mg kg^−1 IP, p = 0.0021): decreased
- Numbers of nicotine infusions earned vs vehicle ([2]; SR9883 10 mg kg^−1 IP, p < 0.0001): decreased
- Responding on the inactive lever ([2]; SR9883 5 and 10 mg kg^−1 IP, p = 0.1274, not significant): tended to be decreased
- Residual deficits in nicotine responding across daily sessions after treatment ([2]; baseline sessions prior to each SR9883 treatment): no residual deficits
- Concentration inducing maximal enhancement of nAChR signaling ([4]; EC20-30 nicotine): ~ 3 μM
